Source: US9809562B2, “NAT10 modulators for treating or preventing laminopathies, aging and cancer” (CAMBRIDGE ENTERPRISE LIMITED, priority 2014, dated 2017)

Assays:
Format in all cases: cell-based, human
siLMNA cells = experiment: Golgi apparatus integrity (anti-Giantin) in siLMNA cells
Excerpt: FIG. 13: Inhibiting NAT10 acetyltransferase activity modifies microtubule organisation to rescue nuclear shape defects. A) Microtubule network visualisation by inverted IF pictures of α-Tubulin. B) Nuclear shape visualisation after treating cells with microtubule or actin cytoskeleton disrupting agents. C) Visualisation of nuclear shape (DAPI) and Golgi (anti-Giantin) integrity in siLMNA cells. D) Fractionation of polymerised (P) and soluble (S) tubulin upon Remodelin or nocodazole (Nocod.) treatment. […] Right: quantification of cells with the indicated patterns (means of three independent experiments with n>103±s.e.m.). F) Laminopathic cells have enlarged, misshapen nuclei associated with disorganized chromatin structure. Upon Remodelin treatment, NAT10 acetyltransferase activity is inhibited, leading to disruption of microtubule anchorage at the centrosome and release of microtubule forces on the nuclear envelope. This release of mechanical stress on the nucleus contributes to nuclear shape rescue and global improvement of cellular fitness and chromatin organization. Scale bars: 20 μm.
Cells were washed with PBS and fixed for 20 minutes with 2% PFA in PBS. Cells were permeabilised for 5 minutes with PBS/0.2% Triton X-100, and blocked with PBS/0.2% Tween 20 (PBS-T) containing 5% BSA. […]

[1] = tested on: non-laminopathic Werner syndrome cells; experiment: Misshapen nuclei in Werner syndrome cells
Excerpt: (§1) FIG. 10: Remodelin rescues nuclear shape of aged MRC5 cells but not WS cells in a dose dependent manner. A) Misshapen nuclei observed by DAPI staining in MRC5 aged cells in culture, at population doubling 44 (PD44) were rescued by Remodelin. B) Quantification of misshapen nuclei after increasing concentrations of Remodelin (mean of three independent experiments±s.e.m.). C) DAPI staining of non-laminopathic Werner Syndrome cells (WS) showing no nuclear shape improvement upon Remodelin treatment. D) Cell Profiler quantification of misshapen nuclei (mean of three independent experiments±s.d. n>273). Scale bars: 50 μm.
(§2) U2OS and SaOS-2 osteosarcoma cells, HeLa cervical cancer cells, A431 melanoma cells, NCI-SNU5 gastric cancer cells, MRC-5 lung fibroblast cells and Werner syndrome patient-derived SV40 fibroblast cells were grown in Dulbecco's modified Eagle medium (DMEM, Sigma-Aldrich) supplemented with 10% fetal bovine serum (BioSera), 2 mM L-glutamine, 100 U per ml penicillin, 100 μg ml^−1 streptomycin. Normal skin primary fibroblasts GM03440 and Hutchinson Gilford Progeria Syndrome (HGPS) skin primary fibroblasts AG11498 and AG06297 were purchased from Coriell Cell Repositories and used between passage number 9-12 and 20-23 respectively. Cells were grown in DMEM supplemented as above. […] Cells were analysed 48 to 72 hours after transfection.

HGPS cells = experiment: Proliferation assay of HGPS cells (IncuCyte); conditions: Remodelin 1 μM
Method: HGPS cells were plated at the same number in 24 well dishes. Next day, Remodelin (1 μM) or small molecule Compound 2 (1 to 10 μM), were added to the wells and plates were transferred into an IncuCyte microscope (Essen BioScience). Phase contrast pictures were acquired every 2 hours over several days. Percentage of cell confluence was calculated by the Cell Player integrated software (Essen BioScience) and analysed with GraphPad Prism® software.

[2] = tested on: primary MRC5 fibroblasts aged in culture; experiment: Misshapen nuclei in aged MRC5 cells; conditions: population doubling 44
Excerpt: as §1, §2

[3] = tested on: cells derived from patients with Emery-Dreifuss muscular dystrophy (EDMD); experiment: γH2AX in Emery-Dreifuss muscular dystrophy cells
Excerpt: FIG. 12: Remodelin improves global cellular fitness of HGPS cells. A) NAT10 depletion in normal fibroblasts and HGPS AG11498 cells observed by western blotting, and showing that siNAT10 has no effect on Lamin A/C expression and processing. B) IF images showing nuclear shape improvement and decreased numbers of γH2AX foci in HGPS cells upon Remodelin treatment. Scale bars: 10 μm. C) Western Blotting analysis showing that Remodelin decreases γH2AX levels in both HGPS cell lines tested. D) IF images showing nuclear shape improvement and decreased intensity of γH2AX staining in Emery-Dreifuss muscular dystrophy cells (EDMD) upon Remodelin treatment. Scale bars: 10 μm. E) Western Blotting analysis showing that Remodelin decreases γH2AX levels in EDMD. F) Western blotting analysis showing the effect of Remodelin on the p53 and DNA damage signalling pathways in HGPS AG11498 cells. G) Representative IF images of H3K9me3 or SUN1 patterns quantified in H). Scale bars: 20 μm. […]
Total cell extracts were prepared by scraping cells in SDS lysis buffer (4% SDS, 20% glycerol, and 120 mM Tris-HCl, pH 6.8), boiling for 5 minutes at 95° C., followed by 10 strokes through a 25-gauge needle. […] Detection and quantification was performed with an imager (Odyssey; LI-COR Biosciences). […]

Question: Which Golgi apparatus integrity (siLMNA cells) does the source give for `N#Cc1ccc(-c2csc(NN=C3CCCC3)n2)cc1` [Compound 1, 4-(4-Cyanophenyl)-2-(2-cyclopentylidenehydrazinyl)thiazole] here?
Answer: Its Golgi apparatus integrity is “did not affect Golgi apparatus integrity”.

Question: What about the “misshapen nuclei of Werner syndrome cells” value [1] of the same molecule?
Answer: Its value is “no detectable effect on misshapen nuclei”.

Question: What about the “cell proliferation of HGPS cells” value (HGPS cells) of the same molecule?
Answer: The value was “enhanced cell proliferation capacity”.

Question: And the “misshapen nuclei of aged MRC5 cells” value [2]?
Answer: The value was “also had this effect on primary MRC5 fibroblasts aged in culture”.

Question: And the “γH2AX levels in EDMD cells” value [3]?
Answer: Its value is “decreased levels of γH2AX”.
